PubChem BioAssay (NCI)
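Interpolation was linear, between the two tested concentrations surrounding the appropriate level; five concentrations were tested over 48 hours in 96-well plates. At the GI50, growth is halved. TGI is the concentration that stops growth completely.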

Columns and labels:
Assay in all cases: DTP human tumour cell line panel, 48 h
HOP-62 NSCLC = tested on: HOP-62 NSCLC
NCI-H460 lung = tested on: NCI-H460 lung
SK-MEL-28 melanoma = tested on: SK-MEL-28 melanoma
HT29 colon = tested on: HT29 colon
CAKI-1 renal = tested on: CAKI-1 renal
HL-60(TB) leukemia = tested on: HL-60(TB) leukemia
COLO 205 colon = tested on: COLO 205 colon
HOP-92 NSCLC = tested on: HOP-92 NSCLC
MOLT-4 leukemia = tested on: MOLT-4 leukemia
SR leukemia = tested on: SR leukemia

SMILES	TGI (HOP-62 NSCLC) [µM]	TGI (NCI-H460 lung) [µM]	TGI (SK-MEL-28 melanoma) [µM]	TGI (HT29 colon) [µM]	TGI (CAKI-1 renal) [µM]	TGI (HL-60(TB) leukemia) [µM]	TGI (COLO 205 colon) [µM]	TGI (HOP-92 NSCLC) [µM]	TGI (MOLT-4 leukemia) [µM]	TGI (SR leukemia) [µM]	GI50 (HOP-62 NSCLC) [µM]	GI50 (NCI-H460 lung) [µM]	GI50 (SK-MEL-28 melanoma) [µM]	GI50 (COLO 205 colon) [µM]	GI50 (MOLT-4 leukemia) [µM]	GI50 (HT29 colon) [µM]	GI50 (CAKI-1 renal) [µM]	GI50 (HL-60(TB) leukemia) [µM]	GI50 (HOP-92 NSCLC) [µM]	GI50 (SR leukemia) [µM]
CN(c1ccccc1)c1c(-c2ccccc2)c(=O)oc2c1ccc1occc12	> 100	> 100	> 100	> 100	> 100	> 100	> 100	> 95.6	> 100	–	–	–	–	–	–	–	–	–	–	–
CC12CC(=O)NN=C1c1ccccc1C2 (stereo not drawn)	> 100	> 100	> 100	> 100	> 100	> 100	> 100	–	> 100	–	–	–	–	–	–	–	–	–	–	–
NC(=S)NS(=O)(=O)c1ccc(Cl)cc1Cl	> 100	> 100	> 100	> 100	> 100	> 100	> 100	> 100	> 100	–	–	–	–	–	–	–	–	–	–	–
CC[N+]1(C)CCC(O)(/C=C/c2ccc(Cl)c(Cl)c2)C(C(=O)/C=C/c2ccc(Cl)c(Cl)c2)C1 (stereo not drawn)	6.8	9.03	4.37	4.53	12.7	–	10.2	7.82	5.17	> 22.7	–	–	–	–	–	–	–	–	–	–
O=c1c2cc(Cl)ccc2n2nnc3ccc(NCCNCCO)c1c32	3.03	1.58	3.26	2.74	4.97	9.77	2.68	6.1	6.59	–	–	–	–	–	–	–	–	–	–	–
CCCCCCCCCC[C@@H](O)[C@H]1CC[C@@H]([C@H]2CC[C@H]([C@H](O)CCCCCCCCCC[C@@H]3CC(CC(C)=O)C(=O)O3)O2)O1 (stereo partly drawn)	72.2	> 100	> 100	–	> 100	–	32.2	63.4	40.6	–	19.1	0.0647	29	15.6	6.72	–	–	–	–	–
Cn1c(=O)c2[nH]cnc2n(C)c1=O	> 100	> 100	> 100	–	> 100	> 100	> 100	> 100	> 100	> 100	–	–	–	–	–	–	–	–	–	–
O=C(n1c(=O)n(-c2ccc([N+](=O)[O-])cc2)c(=O)n1C(=O)C(Cl)(Cl)Cl)C(Cl)(Cl)Cl	> 100	> 100	> 100	> 100	> 100	> 100	> 100	–	–	–	–	–	–	–	–	–	–	–	–	–
Cc1ccc(N=Nc2cc(=O)[nH]c(=O)[nH]2)cc1C	43.1	41.6	34.3	4.51	–	7.18	19.9	33.4	> 100	> 100	–	–	–	–	–	–	–	–	–	–
CC1Oc2c(c(O)cc3oc(=O)cc(-c4ccccc4)c23)C(=O)C1C (stereo not drawn)	–	> 100	> 100	–	> 100	> 100	> 100	> 100	> 100	–	–	–	–	–	–	–	–	–	–	–
CCCS(=O)OC1C(C2COC(C)(C)O2)OC2OC(C)(C)OC21 (stereo not drawn)	32.5	> 62.1	32.7	17.9	28	–	27.2	22.8	6.57	4.34	–	–	–	–	–	–	–	–	–	–
Cc1ccc(NC(=O)NC23CC4CC(CC(F)(C4)C2)C3)cc1	> 100	> 100	> 100	> 100	–	> 100	> 100	> 100	> 100	–	–	–	–	–	–	–	–	–	–	–
O.O=[Se](=O)(O)O.[NH-]C1CCCCC1[NH-].[Pt+2] (stereo not drawn)	> 100	38.7	> 100	> 100	78.6	33.8	67.8	> 100	> 100	–	37.5	3.77	10.1	5.82	2.79	4.62	4.56	3.22	58.8	–
COc1ccc(CNc2cnc3cc(N)ccc3n2)cc1OC	> 100	> 100	> 100	> 100	> 100	> 100	> 100	–	> 100	> 100	–	–	–	–	–	–	–	–	–	–
C[C@@H](CC(O)C(O)C(C)(C)O)C1CCC23CC12CCC1[C@@]2(C)CCC(=O)C(C)(C)C2CC(OC2OC(CO)C(O)C(O)C2O)[C@]13C (stereo partly drawn)	> 10	> 10	> 10	> 10	> 10	> 10	> 10	> 10	> 10	–	–	–	–	–	–	–	–	–	–	–
CC(=O)Nc1[nH]c(=O)[nH]c(=O)c1N(C(C)=O)C(C)=O	–	> 100	> 100	> 100	> 100	> 100	> 100	> 100	> 100	–	–	–	–	–	–	–	–	–	–	–
CN1C(C(=O)Nc2ccccn2)=C(O)c2ccccc2S1(=O)=O	> 100	–	> 100	> 100	> 100	> 100	> 100	–	> 100	> 100	–	–	–	–	–	–	–	–	–	–
Brc1ccc2[nH]cc(-c3nc(-c4c[nH]c5ccncc45)cs3)c2c1	–	–	3.13	–	–	–	–	–	–	–	–	–	1.73	–	–	–	–	–	–	–
OCC1=C[C@@](COCc2ccccc2)(OCc2ccccc2)[C@@H](OCc2ccccc2)[C@@H]1OCc1ccccc1	70.6	53.1	> 100	35.6	45.1	65.9	23.9	–	8.89	33.4	–	–	–	–	–	–	–	–	–	–
NC(=O)CN1CCN(c2nc(N3CCCC3)c3nc(Cl)c(NCc4ccccc4)nc3n2)CC1	4.89	17.5	18.5	18	> 50	19.2	15.8	20.6	20.3	–	–	–	–	–	–	–	–	–	–	–
N#Cc1nc(Cc2cccs2)oc1N	> 100	–	> 100	> 100	> 100	> 100	–	> 100	> 100	> 100	–	–	–	–	–	–	–	–	–	–
CC(=O)Nc1oc(C)nc1C#N	> 100	–	> 100	> 100	> 100	> 100	–	> 100	> 100	> 100	–	–	–	–	–	–	–	–	–	–
O=C(O)C1(Cc2ccc3c(c2)CCC3)Cc2cc3c(cc2C1)CCC3	–	–	> 100	> 100	–	> 100	> 100	> 100	> 100	> 100	–	–	–	–	–	–	–	–	–	–
O=[N+]([O-])c1ccc(-c2nc3ccccc3o2)cc1	> 100	> 100	> 100	–	> 100	–	> 100	> 100	> 100	> 100	–	–	–	–	–	–	–	–	–	–

SMILES	TGI (HOP-62 NSCLC) [µM]	TGI (NCI-H460 lung) [µM]	TGI (SK-MEL-28 melanoma) [µM]	TGI (HT29 colon) [µM]	TGI (CAKI-1 renal) [µM]	TGI (HL-60(TB) leukemia) [µM]	TGI (COLO 205 colon) [µM]	TGI (HOP-92 NSCLC) [µM]	TGI (MOLT-4 leukemia) [µM]	TGI (SR leukemia) [µM]	GI50 (HOP-62 NSCLC) [µM]	GI50 (NCI-H460 lung) [µM]	GI50 (SK-MEL-28 melanoma) [µM]	GI50 (COLO 205 colon) [µM]	GI50 (MOLT-4 leukemia) [µM]	GI50 (HT29 colon) [µM]	GI50 (CAKI-1 renal) [µM]	GI50 (HL-60(TB) leukemia) [µM]	GI50 (HOP-92 NSCLC) [µM]	GI50 (SR leukemia) [µM]
CC(=O)Oc1ccc(-c2c(OC(C)=O)c(OC(C)=O)c(-c3ccc(OC(C)=O)c(OC(C)=O)c3)c(OC(C)=O)c2OC(C)=O)cc1	–	> 100	28.4	36.1	51.6	43.7	32	–	44.3	49.7	–	–	–	–	–	–	–	–	–	–
COc1ccc(/C(Cl)=C(\C=O)c2ccc(Cl)cc2)cc1	53.6	> 100	–	15.6	> 100	16.6	–	–	7.81	6.7	–	–	–	–	–	–	–	–	–	–
NC(Cc1ccccc1)C(=O)O (stereo not drawn)	> 100	> 100	> 100	> 100	> 100	> 100	> 100	> 100	> 100	–	–	–	–	–	–	–	–	–	–	–
CCCNC(=O)Cn1c(-c2ccccc2)cc2ccccc21	> 100	> 100	> 100	> 100	> 100	> 100	> 100	–	> 100	> 100	–	–	–	–	–	–	–	–	–	–
CC(=O)N/N=C1\NN(C(C)=O)C2(S1)C(=O)Nc1ccccc12 (stereo not drawn)	> 100	> 100	> 100	> 100	> 100	> 100	–	–	> 100	> 100	–	–	–	–	–	–	–	–	–	–
CC1(C)CN=C(c2ccc3ccccc3c2O)N1	> 100	> 100	> 100	–	> 100	> 100	> 100	> 100	> 100	> 100	–	–	–	–	–	–	–	–	–	–
C#Cc1ccccc1C(=O)OC	> 100	> 100	> 100	> 100	–	> 100	> 100	> 100	> 100	> 100	–	–	–	–	–	–	–	–	–	–
COc1cccc2c1C(=O)c1c(O)c3c(c(O)c1C2=O)C[C@](O)(C(=O)CO)CC3OC1CC(N)C(OC2CCCCO2)C(C)O1 (stereo partly drawn)	1.7	0.208	3.38	4.52	18.2	0.294	2.61	1.02	0.0342	–	–	–	–	–	–	–	–	–	–	–
Cc1cccc(/C=N/NC(=S)NC(C)(C)C)n1	> 100	> 100	> 100	> 100	> 100	> 100	> 100	–	> 100	> 100	–	–	–	–	–	–	–	–	–	–
COC(=O)[C@]12CCC(=O)N1[C@H](C(=O)O)Cc1c2[nH]c2ccccc12	> 100	> 100	> 100	> 100	> 100	–	> 100	> 100	> 100	> 100	–	–	–	–	–	–	–	–	–	–
CN(C)CCCN1C(=O)N(CCCN(C)C)c2c3cc(O)ccc3nc3c([N+](=O)[O-])ccc1c23	52.7	70.4	> 100	27.2	78.2	–	27.5	36.7	–	–	–	–	–	–	–	–	–	–	–	–
CN(NC(=O)/C(=C/C=C/c1ccccc1)NC(=O)c1ccccc1)C1=C(Cl)C(=O)[N+](c2ccccc2)=CC1	51.5	> 100	37.1	> 100	> 100	–	33.7	80.1	81.9	66.6	–	–	–	–	–	–	–	–	–	–
Cc1cccc(-c2cc(=O)c3c(C)ccnc3[nH]2)c1	> 100	16.3	> 100	> 100	> 100	0.703	2.68	–	> 100	–	–	–	–	–	–	–	–	–	–	–
COc1cc2c(cc1OCc1ccccc1)NC(=O)[C@@H]1C[C@@H](O)CN1C2=O	> 100	> 100	> 100	> 100	> 100	–	> 100	> 100	> 100	> 100	–	–	–	–	–	–	–	–	–	–
Cn1c(=O)n2n(c1=O)C1C(=CC2)C2C=CC1n1c(=O)n(C)c(=O)n12 (stereo not drawn)	> 100	> 100	> 100	> 100	> 100	> 100	> 100	> 100	> 100	–	–	–	–	–	–	–	–	–	–	–
C=C1C(=O)OC2C1CC1OC2C(C)CCC/C(C)=C\CCC1(C)O (stereo not drawn)	> 65.9	60.9	43.1	> 91.1	61.4	21.2	58.1	30.1	21	–	–	–	–	–	–	–	–	–	–	–
O=c1[nH]nc(Cc2ccc([N+](=O)[O-])cc2)[nH]1	> 100	> 100	> 100	> 100	> 100	> 100	> 100	–	> 100	> 100	–	–	–	–	–	–	–	–	–	–
O=C(O)c1cc2c(cc1CC(Cc1ccccc1)C(=O)O)CCC2 (stereo not drawn)	> 100	> 100	> 100	> 100	> 100	> 100	> 100	–	> 100	> 100	–	–	–	–	–	–	–	–	–	–
CCOC(=O)Cn1c(C)nc2nn(Cc3ccccc3)cc2c1=O	> 100	> 100	> 100	> 100	–	–	–	> 100	> 100	–	–	–	–	–	–	–	–	–	–	–
COC(=O)C1CC(C=O)=C(SC)N1 (stereo not drawn)	> 50	> 50	> 50	> 50	> 50	–	> 50	> 50	> 50	–	–	–	–	–	–	–	–	–	–	–
CCC[CH2][Ge]([CH2]CCC)([CH2]CCC)[O]C(=O)CCl	9.23	13.2	23.6	11.5	20.3	–	24	8.54	29.9	68.5	1.89	0.518	11.5	10.4	0.856	0.628	5.26	–	0.573	0.836
Cc1cn(C2CC(O)C(Cn3cc(Cn4nc(Br)c(=O)[nH]c4=O)nn3)O2)c(=O)[nH]c1=O (stereo not drawn)	> 100	–	> 100	–	> 100	–	> 100	–	> 100	–	–	–	–	–	–	–	–	–	–	–
NC(=O)Nc1n[nH]c(-c2ccccc2)n1	> 100	> 100	> 100	> 100	> 100	> 100	> 100	–	> 100	–	–	–	–	–	–	–	–	–	–	–
